Source: patent publication US8222404B2, “[1,2,4]Thiadiazin-3-yl acetic acid compound and methods of making the acetic acid compound” (Anadys Pharmaceuticals, Inc., priority 2008, dated 2012)

test system: HCV Huh-luc/neo-ET replicon cells; test: Luciferase-Based HCV Replicon Assay (EC50 (1b)); type: cell-based; details: Hepatitis C virus, 72 hours exposure, luciferase activity
Protocol: Luciferase-Based HCV Replicon Assay Protocol (EC50 (1b))
The cell culture component of the assay was performed essentially as described by Bartenschlager et al., Hepatology 2002, 35, 694-703, wherein exponentially growing HCV Huh-luc/neo-ET replicon cells were seeded at 6×10^3 cells/well in 96 well assay plate. 24 hours later the cells were treated with various concentrations of compound in triplicate. After 72 hours exposure to the compound, the luciferase activity in the wells was determined using Bright-Glo reagent (Promega, Madison, Wis.) with a luminometer (Wallac 1420 Multilabel HTS Counter Victor 2). The background control was replicon cells treated with 100 nM BILN-2061, an inhibitor of the HCV protease. % Inhibition was determined for each compound concentration in relation to the negative (no compound) control to calculate the EC50 (1b).

| Compound | EC50 [nM] |
| --- | --- |
| CC(C)(C)CCN1C(=O)C(C2=NS(=O)(=O)c3c(CNS(C)(=O)=O)csc3N2)=C(O)[C@@H]2CCC[C@@H]21 [Example 129, (4aR,7aS)-N-{3-[1-(3,3-Dimethyl-butyl)-4-hydroxy-2-oxo-2,4a,5,6,7,7a-hexahydro-1H-[1]pyrindin-3-yl]-1,1-dioxo-1,4-dihydro-1λ^6-thieno[2,3-e][1,2,4]thiadiazin-7-ylmethyl}-methanesulfonamide] | 5 to 20 |
| CS(=O)(=O)NCc1csc2c1S(=O)(=O)N=C(C1=C(O)C3C4C=CC(C4)C3N(Cc3ccsc3)C1=O)N2 (racemic) [Example 64, (rac-di-exo)-N-[3-(6-Hydroxy-4-oxo-3-thiophen-3-ylmethyl-3-aza-tricyclo[6.2.1.0^2,7]undeca-5,9-dien-5-yl)-1,1-dioxo-1,4-dihydro-1λ^6-thieno[2,3-e][1,2,4]thiadiazin-7-ylmethyl]-methanesulfonamide] | ≤ 5 |
| CS(=O)(=O)NCc1csc2c1S(=O)(=O)N=C(C1=C(O)C3C4CCC(CC4)C3N(CCC3CC3)C1=O)N2 (stereo not shown) [Example 108, N-{3-[3-(2-Cyclopropyl-ethyl)-6-hydroxy-4-oxo-3-aza-tricyclo[6.2.2.0^2,7]dodec-5-en-5-yl]-1,1-dioxo-1,4-dihydro-1λ^6-thieno[2,3-e][1,2,4]thiadiazin-7-ylmethyl}-methanesulfonamide] | 5 to 20 |
| CCCC1CN(Cc2ccc(F)cc2)C(=O)C(C2=NS(=O)(=O)c3c(CNS(C)(=O)=O)csc3N2)=C1O (racemic) [Example 15, rac-N-{3-[1-(4-Fluoro-benzyl)-4-hydroxy-2-oxo-5-propyl-1,2,5,6-tetrahydro-pyridin-3-yl]-1,1-dioxo-1,4-dihydro-1λ^6-thieno[2,3-e][1,2,4]thiadiazin-7-ylmethyl}-methanesulfonamide] | 100 to 1000 |
| COc1ccc(CN2C(=O)C(C3=NS(=O)(=O)c4c(CNS(C)(=O)=O)csc4N3)=C(O)[C@@H]3CCC[C@@H]32)c(OC)c1 [Example 77, (4aR,7aS)-N-{3-[1-(2,4-Dimethoxy-benzyl)-4-hydroxy-2-oxo-2,4a,5,6,7,7a-hexahydro-1H-[1]pyrindin-3-yl]-1,1-dioxo-1,4-dihydro-1λ^6-thieno[2,3-e][1,2,4]thiadiazin-7-ylmethyl}-methanesulfonamide] | > 1000 |
| COc1ccc(CN2C(=O)C(C3=NS(=O)(=O)c4c(CNS(C)(=O)=O)csc4N3)=C(O)[C@@H]3C4CCC(CC4)[C@@H]32)c(OC)c1 [Example 74, N-{3-[(2S,7R)-3-(2,4-Dimethoxy-benzyl)-6-hydroxy-4-oxo-3-aza-tricyclo[6.2.2.0^2,7]dodec-5-en-5-yl]-1,1-dioxo-1,4-dihydro-1λ^6-thieno[2,3-e][1,2,4]thiadiazin-7-ylmethyl}-methanesulfonamide] | > 1000 |
| CS(=O)(=O)NCc1csc2c1S(=O)(=O)N=C(C1=C(O)C(Cc3ccccc3)CN(Cc3ccc(F)cc3)C1=O)N2 (racemic) [Example 12, rac-N-{3-[5-Benzyl-1-(4-fluoro-benzyl)-4-hydroxy-2-oxo-1,2,5,6-tetrahydro-pyridin-3-yl]-1,1-dioxo-1,4-dihydro-1λ^6-thieno[2,3-e][1,2,4]thiadiazin-7-ylmethyl}-methanesulfonamide] | > 1000 |
| CS(=O)(=O)NCc1csc2c1S(=O)(=O)N=C(C1=C(O)[C@@H]3[C@@H]4CC[C@@H](C4)[C@@H]3N(Cc3ccc(F)c(F)c3)C1=O)N2 [Example 41, N-{3-[(1S,2S,7R,8R)-3-(3,4-Difluoro-benzyl)-6-hydroxy-4-oxo-3-aza-tricyclo[6.2.1.0^2,7]undec-5-en-5-yl]-1,1-dioxo-1,4-dihydro-1λ^6-thieno[2,3-e][1,2,4]thiadiazin-7-ylmethyl}-methanesulfonamide] | 5 to 20 |
| CS(=O)(=O)NCc1csc2c1S(=O)(=O)N=C(C1=C(O)C3CCCC3N(NC3CCC3)C1=O)N2 (racemic) [Example 27, (rac-cis)-N-[3-(1-cyclobutylamino-4-hydroxy-2-oxo-2,4a,5,6,7,7a-hexahydro-1H-[1]pyrindin-3-yl)-1,1-dioxo-1,4-dihydro-1λ^6-thieno[2,3-e][1,2,4]thiadiazin-7-ylmethyl]-methanesulfonamide] | > 1000 |
| CS(=O)(=O)NCc1csc2c1S(=O)(=O)N=C(C1=C(O)C3CCCCC3N(Cc3ccsc3)C1=O)N2 (racemic) [Example 135, (rac-cis)-N-[3-(4-Hydroxy-2-oxo-1-thiophen-3-ylmethyl-1,2,4a,5,6,7,8,8a-octahydro-quinolin-3-yl)-1,1-dioxo-1,4-dihydro-1λ^6-thieno[2,3-e][1,2,4]thiadiazin-7-ylmethyl]-methanesulfonamide] | > 1000 |
| CS(=O)(=O)NCc1csc2c1S(=O)(=O)N=C(C1=C(O)C3CCCCCC3N(Cc3ccsc3)C1=O)N2 (racemic) [Example 141, (rac-cis)-N-[3-(4-Hydroxy-2-oxo-1-thiophen-3-ylmethyl-2,4a,5,6,7,8,9,9a-octahydro-1H-cyclohepta[b]pyridin-3-yl)-1,1-dioxo-1,4-dihydro-1λ^6-thieno[2,3-e][1,2,4]thiadiazin-7-ylmethyl]-methanesulfonamide] | > 1000 |
| NS(=O)(=O)NCc1csc2c1S(=O)(=O)N=C(C1=C(O)[C@@H]3[C@H]4CC[C@H](C4)[C@@H]3N(Cc3ccc(F)cc3)C1=O)N2 [Example 34, N-{3-[(1R,2S,7R,8S)-3-(4-Fluoro-benzyl)-6-hydroxy-4-oxo-3-aza-tricyclo[6.2.1.0^2,7]undec-5-en-5-yl]-1,1-dioxo-1,4-dihydro-1λ^6-thieno[2,3-e][1,2,4]thiadiazin-7-ylmethyl}-sulfamide] | 100 to 1000 |
| CC(C)CCC1(C)CN(C2CCC2)C(=O)C(C2=NS(=O)(=O)c3c(CNS(C)(=O)=O)csc3N2)=C1O (racemic) [Example 20, rac-N-{3-[1-Cyclobutyl-4-hydroxy-5-methyl-5-(3-methyl-butyl)-2-oxo-1,2,5,6-tetrahydro-pyridin-3-yl]-1,1-dioxo-1,4-dihydro-1λ^6-thieno[2,3-e][1,2,4]thiadiazin-7-ylmethyl {-methanesulfonamide] | 100 to 1000 |
| CC(C)CCN1C(=O)C(C2=NS(=O)(=O)c3c(CNS(C)(=O)=O)csc3N2)=C(O)[C@@H]2C3CCC(CC3)[C@@H]21 [Example 71, N-{3-[(2S,7R)-6-Hydroxy-3-(3-methyl-butyl)-4-oxo-3-aza-tricyclo[6.2.2.0^2,7]dodec-5-en-5-yl]-1,1-dioxo-1,4-dihydro-1λ^6-thieno[2,3-e][1,2,4]thiadiazin-7-ylmethyl]-methanesulfonamide] | 5 to 20 |
| CCC1CN(Cc2ccc(F)cc2)C(=O)C(C2=NS(=O)(=O)c3c(CNS(C)(=O)=O)csc3N2)=C1O (racemic) [Example 18, rac-N-{3-[5-Ethyl-1-(4-fluoro-benzyl)-4-hydroxy-2-oxo-1,2,5,6-tetrahydro-pyridin-3-yl]-1,1-dioxo-1,4-dihydro-1λ^6-thieno[2,3-e][1,2,4]thiadiazin-7-ylmethyl}-methanesulfonamide] | 100 to 1000 |
| COc1cc(CN2C(=O)C(C3=NS(=O)(=O)c4c(CNS(C)(=O)=O)csc4N3)=C(O)[C@@H]3CCC[C@@H]32)ccc1F [Example 114, (4aR,7aS)-N-{3-[1-(4-Fluoro-3-methoxy-benzyl)-4-hydroxy-2-oxo-2,4a,5,6,7,7a-hexahydro-1H-[1]pyrindin-3-yl]-1,1-dioxo-1,4-dihydro-1λ^6-thieno[2,3-e][1,2,4]thiadiazin-7-ylmethyl}-methanesulfonamide] | 100 to 1000 |
